From patent US20230270113A1, “FUNGICIDAL MIXTURES” (Adama Makhteshim Ltd., priority 2020, published 2023)
Like-named read-outs stand apart in the source and are kept apart here.

Legend:
[1] = test system: Zymoseptoria tritici Tri-R6 strain; format: in vivo; details: for residual efficacy of the contact active ingredients after the washing step: 21 and 28 days after inoculation; for efficacy in the untreated area: contact fungicide as partner of FLUXAPYROXAD
[2] = test system: Zymoseptoria tritici; assay: Example 28: in planta bioassay of penetration and translocation of QoI with folpet, wheat leaf segments; format: in vivo; details: example written in the present tense
[3] = test system: Venturia inaequalis; assay: Example A: greenhouse control of apple scab, phthalimides with DMI and/or fluopyram; format: in vivo; details: for % control observed on leaves 26 DAYS after the application / % control observed on leaves 19 DAYS after the application: captan or folpet 1200, difenoconazole 75, tebuconazole 150, fluopyram 150 gAI/ha; for Var % (19/26 DAYS): change of % control from 19 to 26 days
[4] = test system: Venturia inaequalis; assay: Example 1b: greenhouse control of apple scab, reduced rates of phthalimides and difenoconazole; format: in vivo; details: for % control observed on leaves 26 DAYS after the application / % control observed on leaves 19 DAYS after the application: captan or folpet 900, difenoconazole 35, tebuconazole 150, fluopyram 150 gAI/ha
[5] = test system: Venturia inaequalis; assay: Example 2: greenhouse control of apple scab, phthalimides with cyprodinil and/or fluxapyroxad; format: in vivo; details: Table 6; captan or folpet 1200, cyprodinil 300, fluxapyroxad 90 gAI/ha; one spray 1 day before inoculation
[6] = test system: Alternaria solani; assay: Example 4: greenhouse control of Alternaria solani in tomato seedlings, phthalimides with DMI and/or fluxapyroxad; format: in vivo; details: Table 9
[7] = test system: Alternaria solani; assay: Example 5: greenhouse control of Alternaria solani in tomato, phthalimides with azoxystrobin and/or fluxapyroxad; format: in vivo
[8] = test system: Phytophthora infestans; format: in vivo; details: tomato
[9] = test system: Alternaria solani; assay: Example 6b: greenhouse control of Alternaria solani in potato plants; format: in vivo
[10] = test system: Venturia inaequalis; assay: Example 13: greenhouse control of apple scab, fluxapyroxad and captan; format: in vivo
[11] = test system: Plasmopara viticola; assay: Example 7: greenhouse control of Plasmopara viticola in grape plants, folpet with partners; format: in vivo
[12] = test system: Erysiphe necator; assay: Example 9: greenhouse control of Erysiphe necator in grape plants; format: in vivo
Description: • An experiment was conducted in controlled conditions under a greenhouse to evaluate the fungicidal activity of the mixture comprising (1) phthalimide fungicide (folpet, captan) and (2) demethylation inhibitor fungicide (difenoconazole) or a quinone outside inhibitors (azoxystrobin, pyraclostrobin), toward Erysiphe necator in grape plants, variety Barbera. In addition, the activity of phthalimide with two fungicides (A); demethylation inhibitor fungicide (difenoconazole) or a quinone outside inhibitors (azoxystrobin, pyraclostrobin and dehydrogenase inhibitor fungicide (fluxapyroxad) was also tested. • The experiment was conducted by applying compositions of fluxapyroxad, difenoconazole (Score® 10 WG), azoxystrobin (Ortiva®), pyraclostrobin (Cabrio® EC) and folpet (Folpan 80 WDG®) alone or together. The compositions were diluted with water. Water amount used was equivalent to 800 L/ha. Application was performed in an automatic spraying cabin equipped with 2 flatfan AI11003VS nozzles. • Treatments: • Folpet 1000 gr (A.I.)/ha • Fluxapyroxad 45 gr (A.I.)/ha • Difenoconazole 37.5 gr (A.I.)/ha • Difenoconazole 37.5 gr (A.I.)/ha+folpet 1000 gr (A.I.)/ha • Azoxystrobin 90 gr (A.I.)/ha • Azoxystrobin 90 gr (A.I.)/ha+folpet 1000 gr (A.I.)/ha • Pyraclostrobin 75 gr (A.I.)/ha • Pyraclostrobin 75 gr (A.I.)/ha+folpet 1000 gr (A.I.)/ha • Fluxapyroxad 45 gr (A.I.)/ha+Difenoconazole 37.5 gr (A.I.)/ha • Fluxapyroxad 45 gr (A.I.)/ha+Difenoconazole 37.5 gr (A.I.)/ha+folpet 1000 gr (A.I.)/ha • Azoxystrobin 90 gr (A.I.)/ha+Fluxapyroxad 45 gr (A.I.)/ha • Azoxystrobin 90 gr (A.I.)/ha+Fluxapyroxad 45 gr (A.I.)/ha+folpet 1000 gr (A.I.)/ha • Azoxystrobin 90 gr (A.I.)/ha+Difenoconazole 37.5 gr (A.I.)/ha • Azoxystrobin 90 gr (A.I.)/ha+Difenoconazole 37.5 gr (A.I.)/ha+folpet 1000 gr (A.I.)/ha • Pyraclostrobin 75 gr (A.I.)/ha+Fluxapyroxad 45 gr (A.I.)/ha • Pyraclostrobin 75 gr (A.I.)/ha+Fluxapyroxad 45 gr (A.I.)/ha+folpet 1000 gr (A.I.)/ha • Pyraclostrobin 75 gr (A.I.)/ha+Difenoconazole 37.5 gr (A.I.)/ha • Pyraclostrobin 75 gr (A.I.)/ha+Difenoconazole 37.5 gr (A.I.)/ha+folpet 1000 gr (A.I.)/ha • To test for fungicidal control of Erysiphe necator, the grape plants were sprayed with each of the above treatments. Each of the above treatments was applied from 4 to 10 times according to the disease development, applications occurring 7-14 days after the previous treatment. The treatments were composed of 4 replicates. • Evaluations were performed for the whole duration of the experiment. At each time the incidence and the severity of Erysiphe necator on plants parts was determined.

[13] = test system: Sphaerotheca fuliginea; assay: Example 10: greenhouse control of Sphaerotheca fuliginea on melon plants; format: in vivo
[14] = test system: Plasmopara viticola; assay: Example 22: greenhouse control of Plasmopara viticola in grape, fluxapyroxad and folpet; format: in vivo; details: variety Barbera
[15] = test system: Plasmopara viticola; assay: Example 8: greenhouse control of Plasmopara viticola in young grape plants, folpet with potassium phosphonate
[16] = test system: Botrytis cinerea; assay: Example 11: greenhouse control of Botrytis cinerea in strawberry; format: in vivo
[17] = 28 days, comparison with FLUXAPYROXAD alone
[18] = Table 2, one spray 1 day before inoculation, severity based
[19] = Table 4, one spray 1 day before inoculation
[20] = captan or folpet 1200, difenoconazole 75, tebuconazole 150, fluxapyroxad 75 gAI/ha, one spray 1 day before inoculation
[21] = Table 10, captan or folpet 900 gAI/ha
[22] = Table 10, captan or folpet 1200, azoxystrobin 120, fluxapyroxad 75 gAI/ha, one spray 1 day before inoculation

Row | Compound | residual efficacy of the contact active ingredients after the washing step [1] | efficacy in the untreated area [1, 17] | difference from the untreated control after the washing step, treated and untreated areas [2] | % control observed on leaves 26 DAYS after the application [3, 18] | % control observed on leaves 19 DAYS after the application ([3]; Table 3) | % control observed on leaves 26 DAYS after the application ([3]; Table 3) | Var % (19/26 DAYS) ([3]; Table 3) | % control observed on leaves 26 DAYS after the application [4, 19] | % control observed on leaves 19 DAYS after the application ([4]; Table 5) | % control observed on leaves 26 DAYS after the application ([4]; Table 5) | % control observed on leaves 26 DAYS after the application [5] | % control observed on leaves 20 DAYS after the application ([6]; captan or folpet 900 gAI/ha) | % control observed on leaves 20 DAYS after the application [6, 20] | % control observed on leaves 20 DAYS after the application [7, 21] | % control observed on leaves 20 DAYS after the application [7, 22] | % control observed on leaves 14 DAYS after the application ([7]; rate 900 gAI/ha, tomato) | % control observed on leaves 20 DAYS after the application ([7]; rate 900 gAI/ha, tomato) | Var % (14/20 DAYS) ([7]; rate 900 gAI/ha, tomato) | % control observed on leaves 14 DAYS after the application ([7]; rate 1200 gAI/ha, tomato) | % control observed on leaves 20 DAYS after the application ([7]; rate 1200 gAI/ha, tomato) | other results
1 | N#Cc1c(Cl)c(Cl)c(Cl)c(C#N)c1Cl [CHLOROTHALONIL, chlorothalonil] | very low | significantly less than when FLUXAPYROXAD is used alone or with FOLPET | no significant difference from the untreated control |  |  |  |  |  |  |  |  |  |  |  |  |  |  |  |  |  | 
2 | O=C1C2CC=CCC2C(=O)N1SC(Cl)(Cl)Cl (stereo not shown) [CAPTAN, captan] |  |  |  | 75.9% | 82.6% | 75.9% | −8.1% | 77% | 83.9% | 77% | 68.3% | 51.3% | 64.3% | 54.5% | 65.9% | 64.9% | 54.5% | −16.0% | 76% | 65.9% | Var % (19/26 DAYS) ([4]; Table 5, change of % control from 19 to 26 days): −8.2%; Var % (14/20 DAYS) ([7]; rate 1200 gAI/ha, tomato): −13.3%; % control observed on leaves 14 DAYS after the application ([8]; rate 900 gr (A.I.)/ha): 57.0%; % control observed on leaves 14 DAYS after the application ([8]; rate 1200 gr (A.I.)/ha): 72.4%; % control observed on leaves 21 DAYS after the application ([9]; rate 900 gr (A.I.)/ha): 54.1%; % control observed on leaves 21 DAYS after the application ([9]; rate 1200 gr (A.I.)/ha): 64.8%; % control observed on leaves 26 DAYS after the application ([10]; rate 600 gAI/ha): 50.4%; % control observed on leaves 26 DAYS after the application ([10]; rate 900 gAI/ha): 68.1%; % control observed on leaves 26 DAYS after the application ([10]; rate 1200 gAI/ha): 78.5%; % control observed on leaves 26 DAYS after the application ([10]; rate 1500 gAI/ha): 89.1%
3 | Cn1cc(C(=O)Nc2ccccc2-c2cc(F)c(F)c(F)c2)c(C(F)F)n1 [FLUXAPIROXAD, fluxapyroxad] |  |  |  |  |  |  |  |  |  |  | 75% |  | 60.4% |  | 66.6% |  |  |  |  |  | % control observed on leaves 14 DAYS after the application ([7]; rate 75 gAI/ha, tomato): 75.3%; % control observed on leaves 20 DAYS after the application ([7]; rate 75 gAI/ha, tomato): 66.6%; Var % (14/20 DAYS) ([7]; rate 75 gAI/ha, tomato): −11.6%; % control observed on leaves 21 DAYS after the application ([11]; rate 45 gr (A.I.)/ha): 35.1%; % control observed on leaves 21 DAYS after the application ([12]; rate 45 gr (A.I.)/ha): 68.7%; % control observed on leaves 21 DAYS after the application ([13]; rate 75 gr (A.I.)/ha): 72.5%; % control observed on leaves 26 DAYS after the application ([10]; rate 45 gAI/ha): 38.6%; % control observed on leaves 26 DAYS after the application ([10]; rate 55 gAI/ha): 61.7%; % control observed on leaves 26 DAYS after the application ([10]; rate 75 gAI/ha): 78.4%; % control observed on leaves 26 DAYS after the application ([10]; rate 90 gAI/ha): 86.6%; effect against Plasmopara viticola [14]: limited effect; efficacy in the treated area [1, 17]: better protection than when used with SULPHUR or CHLOROTHALONIL
4 | potassium phosphonate |  |  |  |  |  |  |  |  |  |  |  |  |  |  |  |  |  |  |  |  | % control observed on leaves 28 DAYS after the application ([15]; rate 1575 gAI/ha): 31.7%; % control observed on leaves 28 DAYS after the application ([15]; rate 1800 gAI/ha): 40.9%
5 | S1SSSSSSS1 [SULPHUR] | very low | significantly less than when FLUXAPYROXAD is used alone or with FOLPET | no significant difference from the untreated control |  |  |  |  |  |  |  |  |  |  |  |  |  |  |  |  |  | 
6 | O=C1c2ccccc2C(=O)N1SC(Cl)(Cl)Cl [FOLPET, folpet] | very low |  | no significant difference from the untreated control | 72.3% | 80.6% | 72.3% | −10.3% | 73.4% | 82.1% | 73.4% | 64.9% | 50.5% | 63.4% | 56.7% | 65.3% | 67.8% | 56.7% | −16.4% | 79.7% | 65.3% | Var % (14/20 DAYS) ([7]; rate 1200 gAI/ha, tomato): 18.1%; % control observed on leaves 14 DAYS after the application ([8]; rate 900 gr (A.I.)/ha): 58.3%; % control observed on leaves 14 DAYS after the application ([8]; rate 1200 gr (A.I.)/ha): 70.3%; % control observed on leaves 21 DAYS after the application ([9]; rate 900 gr (A.I.)/ha): 53.2%; % control observed on leaves 21 DAYS after the application ([9]; rate 1200 gr (A.I.)/ha): 63.6%; % control observed on leaves 21 DAYS after the application ([11]; rate 1000 gr (A.I.)/ha): 60.3%; % control observed on leaves 21 DAYS after the application ([12]; rate 1000 gr (A.I.)/ha): 35.2%; % control observed on leaves 21 DAYS after the application ([13]; rate 900 gr (A.I.)/ha): 45.3%; % control observed on leaves 21 DAYS after the application ([13]; rate 1200 gr (A.I.)/ha): 54.0%; % control observed on leaves 21 DAYS after the application ([16]; rate 900 gr (A.I.)/ha): 33.3%; % control observed on leaves 21 DAYS after the application ([16]; rate 1200 gr (A.I.)/ha): 40.8%; % control observed on leaves 28 DAYS after the application ([15]; rate 1050 gAI/ha): 87.7%; % control observed on leaves 28 DAYS after the application ([15]; rate 1200 gAI/ha): 96.9%
